Test results: publication PMC7105138, “Modeling cancer genomic data in yeast reveals selection against ATM function during tumorigenesis” (PLoS Genetics, 2020)
Substitutions are numbered along the chain they refer to.

How the values were obtained:
Rad50 [1] = target: T1, Rad50 (Saccharomyces cerevisiae, UniProt P12753); experiment: nitrocellulose filter binding, […]-ATP; conditions: 2 uM Rad50, 50 uM ATP incl. 0.1 uM alpha-32P-ATP (labelled compound), 2 mM MgCl2, pH 8.0, RT then ice
T1 construct: full-length Rad50 with C-terminal 1xFLAG tag (DYKDDDDK), tag kept; plasmid pR50.1 (2mu, GAL-PGK-RAD50); overexpressed and purified from yeast
T1 sequence (P12753 1-1312): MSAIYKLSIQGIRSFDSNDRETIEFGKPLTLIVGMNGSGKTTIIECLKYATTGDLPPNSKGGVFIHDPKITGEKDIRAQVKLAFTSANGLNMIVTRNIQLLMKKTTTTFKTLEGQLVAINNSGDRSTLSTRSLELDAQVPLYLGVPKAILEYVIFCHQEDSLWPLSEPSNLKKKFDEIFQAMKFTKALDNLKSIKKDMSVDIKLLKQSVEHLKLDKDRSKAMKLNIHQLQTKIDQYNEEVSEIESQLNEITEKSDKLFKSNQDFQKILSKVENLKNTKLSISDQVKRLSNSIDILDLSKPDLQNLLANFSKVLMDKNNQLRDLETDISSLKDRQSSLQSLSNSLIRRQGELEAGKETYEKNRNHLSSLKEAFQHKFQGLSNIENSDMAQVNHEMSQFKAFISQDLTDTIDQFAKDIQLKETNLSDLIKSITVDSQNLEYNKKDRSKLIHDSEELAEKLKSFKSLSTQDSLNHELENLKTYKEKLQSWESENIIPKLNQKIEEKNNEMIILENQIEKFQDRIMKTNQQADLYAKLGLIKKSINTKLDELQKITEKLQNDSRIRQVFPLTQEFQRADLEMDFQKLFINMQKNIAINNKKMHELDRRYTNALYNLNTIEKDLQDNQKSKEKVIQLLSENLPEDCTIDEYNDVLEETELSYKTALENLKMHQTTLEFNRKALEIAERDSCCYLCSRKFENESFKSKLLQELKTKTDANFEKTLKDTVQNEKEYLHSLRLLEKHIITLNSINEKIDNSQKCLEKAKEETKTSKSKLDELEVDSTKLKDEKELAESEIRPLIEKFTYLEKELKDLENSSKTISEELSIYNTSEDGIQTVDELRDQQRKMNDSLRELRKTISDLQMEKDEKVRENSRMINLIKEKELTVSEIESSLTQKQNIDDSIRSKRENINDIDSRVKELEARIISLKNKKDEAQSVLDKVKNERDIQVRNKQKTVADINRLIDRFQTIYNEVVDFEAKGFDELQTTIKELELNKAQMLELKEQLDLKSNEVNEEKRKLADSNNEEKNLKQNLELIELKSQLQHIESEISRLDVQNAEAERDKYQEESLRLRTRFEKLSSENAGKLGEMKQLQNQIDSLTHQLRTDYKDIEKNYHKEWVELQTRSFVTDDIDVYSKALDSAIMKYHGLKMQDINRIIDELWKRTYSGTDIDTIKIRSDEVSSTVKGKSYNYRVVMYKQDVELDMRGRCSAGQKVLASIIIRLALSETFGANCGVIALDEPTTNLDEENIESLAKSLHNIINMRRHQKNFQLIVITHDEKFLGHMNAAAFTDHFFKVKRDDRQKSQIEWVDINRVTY

Rad50 [2] = target: T2, Rad50 (Saccharomyces cerevisiae, UniProt P12753, D67N); experiment: nitrocellulose filter binding, […]-ATP; conditions: 2 uM Rad50, 50 uM ATP incl. 0.1 uM alpha-32P-ATP (labelled compound), 2 mM MgCl2, pH 8.0, RT then ice
T2 construct: full-length Rad50 with C-terminal 1xFLAG tag (DYKDDDDK), tag kept; plasmid pR50.1 (2mu, GAL-PGK-RAD50); overexpressed and purified from yeast
T2 sequence (P12753 1-1312 D67N): T1 sequence (P12753 1-1312) with D67N

Rad50 [3] = target: T3, Rad50 (Saccharomyces cerevisiae, UniProt P12753, D67Y); experiment: nitrocellulose filter binding, […]-ATP; conditions: 2 uM Rad50, 50 uM ATP incl. 0.1 uM alpha-32P-ATP (labelled compound), 2 mM MgCl2, pH 8.0, RT then ice
T3 construct: full-length Rad50 with C-terminal 1xFLAG tag (DYKDDDDK), tag kept; plasmid pR50.1 (2mu, GAL-PGK-RAD50); overexpressed and purified from yeast
T3 sequence (P12753 1-1312 D67Y): T1 sequence (P12753 1-1312) with D67Y

Rad50 [4] = target: T4, Rad50 (Saccharomyces cerevisiae, UniProt P12753, L1240F); experiment: nitrocellulose filter binding, […]-ATP; conditions: 2 uM Rad50, 50 uM ATP incl. 0.1 uM alpha-32P-ATP (labelled compound), 2 mM MgCl2, pH 8.0, RT then ice
T4 construct: full-length Rad50 with C-terminal 1xFLAG tag (DYKDDDDK), tag kept; plasmid pR50.1 (2mu, GAL-PGK-RAD50); overexpressed and purified from yeast
T4 sequence (P12753 1-1312 L1240F): T1 sequence (P12753 1-1312) with L1240F

[5] = tested on: Rad50 WT (Saccharomyces cerevisiae); experiment: EMSA; conditions: ATP, 5 mM Mg2+, 150 mM NaCl; 25 mM Tris-Cl pH 7.6, 150 mM NaCl (also 50, 250, 300 mM), 7.5% glycerol, 1 mM beta-mercaptoethanol, 0.125% Igepal, 5 mM MgCl2, with or without 5 mM ATP; 5 nM …

molar ratio of bound ATP to Rad50 (Rad50 [1]) [ATP/Rad50] | ATP/Rad50 (Rad50 [2]) [ATP/Rad50] | ATP/Rad50 (Rad50 [3]) [ATP/Rad50] | ATP/Rad50 (Rad50 [4]) [ATP/Rad50] | Compound | Kd [5] [nM]
1.1 | 0.6 | 0.7 | 0.4 | Nc1ncnc2c1ncn2[C@@H]1O[C@H](COP(=O)(O)OP(=O)(O)OP(=O)(O)O)[C@@H](O)[C@H]1O [ATP] | 
 |  |  |  | 83-mer dsDNA oligonucleotide | 180
